Converted amounts (≈) assume the structure as drawn.
Legend:
[1] = test system: Bacillus subtilis ATCC 6633; experiment: microbe, parasite or virus in culture; format: cell-based
Protocol: All compounds were dissolved in H2O. Bacillus subtilis ATCC® 6633™ NRS-231 was cultured in MHB at 37 °C for 48 h. A sample of each culture was then diluted 40-fold in fresh MHB and incubated at 37 °C for 18 h. Compounds were added to each row of 96-well NBS plates (NBS, Corning 3641), in duplicate. The tripeptide N,N΄-diacetyl-L-Lys-D-Ala-D-Ala was serially diluted twofold across the compound-containing wells from 6400 to 3 µg mL^−1. To this the resultant mid-log phase cultures were diluted to the final concentration of 5 × 10^5 CFU mL^−1, then added to wells of the compound-containing plates. All the plates were covered and incubated at 37 °C for 24 h.

[2] = test system: Multi-drug-resistant S. pneumoniae ATCC 700677; experiment: microbe, parasite or virus in culture; settings: ATCC 700677
Summary of the method: (§1)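 MICs were determined by broth microdilution in Mueller Hinton broth. Bacteria were pregrown overnight, diluted 40-fold and regrown 2–3 h at 37 °C.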

[3] = test system: Vancomycin-resistant (VanA) Enterococcus faecium ATCC 51559; experiment: microbe, parasite or virus in culture; settings: ATCC 51559
Summary of the method: as §1

[4] = test system: Vancomycin-intermediate S. aureus NRS1; experiment: microbe, parasite or virus in culture; settings: Vancomycin-intermediate NRS1
Summary of the method: as §1

[5] = test system: Methicillin-resistant S. aureus ATCC 43300; experiment: microbe, parasite or virus in culture; settings: ATCC 43300, 24 h
Summary of the method: as §1

[6] = Cytotoxicity MTT assay; format: cell-based, human; settings: human
Summary of the method: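 HepG2 and HEK293 cells, 1.5 × 10^4 per well in DMEM with 1% FBS, were allowed to attach for 24 h, then exposed 24 h at 37 °C to compounds at 100 µM to 0.046 µM in threefold steps. MTT (0.4 mg mL^−1) was added for 2 h, and formazan in DMSO was read at 570 nm. Viability is given as percent of control, corrected for a positive control.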

[7] = Critical micelle concentration assay; format: physicochemical; settings: 0.2 M NaCl, DPH
Protocol: CMCs were determined as previously described[46] with a higher throughput modification. Briefly, a cascade dilution of each antibiotic was performed in a low binding polypropylene V-bottom shaped 96-well plates in the presence of 0.2 M NaCl solution across 12 concentrations ranging from 1000 to 0.1 μM, except the control melittin (100 to 0.01 μM). An identical cascade dilution was performed for the neutral detergent Triton X-100 and the anionic detergent sodium dodecyl sulphate (SDS) starting from 0.1% down to 0.00001% (vol:vol for Triton X-100 and wt:vol for SDS). An aliquot of […] (DPH) in DMSO was added in each well to yield the final DPH concentration of 5 μM. The reaction mixtures were mixed for 30 s and transferred in horizontal triplicate (25 μL per well) into a black falcon 384-well plate. The 384-well plate was then sealed, wrapped up in aluminium foil and incubated for 30 min at room temperature. The fluorescence intensity was monitored in real time using a BMG Labtech PolarStar Omega multimode reader fitted with 360-10 and 430-10 excitation and emission filters respectively, at an excitation wavelength of 360 nm and an emission wavelength of 430 nm.

[8] = Cytotoxicity MTT assay; format: cell-based, human; settings: human; remark: listed apart in the source
[9] = 37 °C, 20 µM
[10] = in vitro; settings: human, 50% human plasma (pooled, sodium heparin) in PBS, pH 7.4

In the case of CN[C@H](CC(C)C)C(=O)N[C@H]1C(=O)N[C@@H](CC(N)=O)C(=O)N[C@H]2C(=O)N[C@H]3C(=O)N[C@H](C(=O)N[C@H](C(=O)NCCCC[C@H](NC(=O)[C@H](CCCCN)NC(=O)[C@H](CCCCN)NC(=O)[C@H](CCCCNC(=O)c4ccc(Oc5ccccc5)cc4)NC(=O)c4ccc(Oc5ccccc5)cc4)C(=O)O)c4cc(O)cc(O)c4-c4cc3ccc4O)[C@H](O)c3ccc(c(Cl)c3)Oc3cc2cc(c3O[C@@H]2O[C@H](CO)[C@@H](O)[C@H](O)[C@H]2O[C@H]2C[C@](C)(N)[C@H](O)[C@H](C)O2)Oc2ccc(cc2Cl)[C@H]1O [Compound 23, POP2K-KK-K(Vancomycin)-OH], the “Ac2Kaa concentration required to neutralise MIC activity” value ([1]; ATCC 6633, 48 h) is reported as 200 µg/mL, the MIC ([1]; ATCC 6633, 48 h) is reported as no more than 0.004 µg/mL and the “Molar excess of Ac2Kaa ligand required to antagonise antibacterial activity” value ([1]; [ligand]/[antibiotic], B. subtilis ATCC 6633, 24 h) is reported as 15,102. The “MIC MDR S.P.” value [2] was less than 0.003 µg/mL, the “MIC VRE” value [3] was 4 µg/mL (≈ 1700 nM) and the “MIC VISA” value [4] was 0.5 µg/mL (≈ 212 nM). For the same molecule, the “MIC MRSA” value [5] was less than 0.003 µg/mL, the CC50 at 24 h [6] was 47 µM and the “critical micelle concentration (CMC)” value [7] was “exceed 100 µM”. The CC50 at 24 h [8] was 41 µM, the “% compound remaining after incubation in 50% human plasma, 0h” value [9] was 100% and the remaining at 1 h, 20 µM [10] was 107%. For the same molecule, the remaining at 6 h, 20 µM [10] was 103% and the remaining at 24 h, 20 µM [10] was 99%.

Source: PMC5750218, “Protein-inspired antibiotics active against vancomycin- and daptomycin-resistant bacteria” (Nature Communications, 2018)
